Common to all, as to format: functional
In assay [1] the test system is Candida albicans. In words: Antimicrobial activity against Candida albicans ATCC 60193 assessed as growth inhibition after 18-24 hr by broth double microdilution method. For orientation: In broth dilution the organism is exposed to a series of concentrations in liquid medium.
Assay [2] relates to Mycolicibacterium smegmatis. In words: Antimicrobial activity against Mycobacterium smegmatis ATCC 607 assessed as growth inhibition after 48-72 hr by broth double microdilution method.
Assay [3] concerns Bacillus cereus. In words: Antimicrobial activity against Bacillus cereus 709 Roma assessed as growth inhibition after 18-24 hr by broth double microdilution method.
Assay [4] concerns Staphylococcus aureus. In words: Antimicrobial activity against Staphylococcus aureus ATCC 25923 assessed as growth inhibition after 18-24 hr by broth double microdilution method.
In assay [5] the test system is Enterococcus faecalis. In words: Antimicrobial activity against Enterococcus faecalis ATCC 29212 assessed as growth inhibition after 18-24 hr by broth double microdilution method.
In assay [6] the test system is Listeria monocytogenes. In words: Antimicrobial activity against Listeria monocytogenes ATCC 43251 assessed as growth inhibition after 18-24 hr by broth double microdilution method.
Assay [7] relates to Pseudomonas aeruginosa. In words: Antimicrobial activity against Pseudomonas aeruginosa ATCC 10145 assessed as growth inhibition after 18-24 hr by broth double microdilution method.
Assay [8] relates to Yersinia pseudotuberculosis. In words: Antimicrobial activity against Yersinia pseudotuberculosis ATCC 911 assessed as growth inhibition after 18-24 hr by broth double microdilution method.
In assay [9] the test system is Escherichia coli. In words: Antimicrobial activity against Escherichia coli ATCC 35218 assessed as growth inhibition after 18-24 hr by broth double microdilution method.
In assay [10] the test system is Saccharomyces cerevisiae. In words: Antimicrobial activity against Saccharomyces cerevisiae RSKK 251 assessed as growth inhibition after 18-24 hr by broth double microdilution method.

Structures are written as SMILES. ≈ marks a conversion by molar mass, not a printed value. Calls of active or inactive are those of the source. The calls are words filed in the database; no cut-off is given here. Some results are limits rather than exact numbers.

For orientation: MIC means the lowest concentration found to suppress growth. `Cc1nn(-c2ccc(N)cc2F)c(=O)[nH]1`: the MIC in [1] came to 125 µg/mL (≈ 600 µM); in assay [2], 31.3 µg/mL (≈ 150 µM); in [10], 500 µg/mL (≈ 2400 µM). The MIC result in assay [3], in [4], in [5], in assay [6], in assay [7] and in assay [8] was “inactive” each time. In assay [9], the MIC result was “inactive”.

On to `Cc1nn(CN2CCCCC2)c(=O)n1CCCn1ccnc1`, for which the MIC in assay [1] was 15.6 µg/mL (≈ 51.2 µM); in assay [2], 3.9 µg/mL (≈ 12.8 µM); in assay [3], less than 0.12 µg/mL; in assay [4], less than 0.12 µg/mL; in [5], less than 0.12 µg/mL; in [6] it was less than 0.12 µg/mL. Also, the MIC in [7] is less than 0.12 µg/mL; in assay [8], less than 0.12 µg/mL; in [9], less than 0.12 µg/mL; in assay [10], 3.9 µg/mL (≈ 12.8 µM).

`Cc1nn(CC(=O)NNC(=S)Nc2ccccc2)c(=O)n1CCCn1ccnc1`: the MIC in [1] turned out to be 250 µg/mL (≈ 603 µM); in assay [2], 31.3 µg/mL (≈ 75.5 µM); in assay [10], 62.5 µg/mL (≈ 151 µM). For the same molecule, the MIC result in assay [3], in assay [4], in assay [5], in assay [6], in assay [7] and in assay [8] was “inactive” each time. Moreover, the MIC result in assay [9] was “inactive”.

As to `CN[C@@H]1[C@H](O[C@H]2[C@H](O[C@H]3[C@H](O)[C@@H](O)[C@H](N=C(N)N)[C@@H](O)[C@@H]3N=C(N)N)O[C@@H](C)[C@]2(O)C=O)O[C@@H](CO)[C@H](O)[C@H]1O` [STREPTOMYCIN], in assay [2], the minimal inhibitory concentration (MIC) is 4 µg/mL (≈ 6.88 µM).

For the molecule `Cc1nn(Cc2nnc(S)n2-c2ccccc2)c(=O)n1CCCn1ccnc1`, the MIC in [1] was 500 µg/mL (≈ 1260 µM); in [2] it was 125 µg/mL (≈ 315 µM); in assay [10] it was 500 µg/mL (≈ 1260 µM). The MIC entry in [3], in assay [4], in assay [5], in assay [6], in assay [7] and in assay [8] was “inactive” in each case. For the same molecule, the MIC result in [9] is “inactive”.

Turning to `CCOC(=O)Cn1nc(C)n(/N=C/c2ccncc2)c1=O`, in assay [1], the MIC is 250 µg/mL (≈ 864 µM). Also, the MIC entry in [2], in assay [3], in [4], in assay [5], in assay [6] and in [7] was “inactive” throughout. The MIC entry in assay [8], in [9] and in assay [10] was “inactive” each time.

Consider `CC1(C)S[C@@H]2[C@H](NC(=O)[C@H](N)c3ccccc3)C(=O)N2[C@H]1C(=O)O` [AMPICILLIN], for which the MIC is less than 1 µg/mL in [3]; 2 µg/mL (≈ 5.72 µM) in assay [4]; 2 µg/mL (≈ 5.72 µM) in assay [5]; 8 µg/mL (≈ 22.9 µM) in [6]; greater than 128 µg/mL in assay [7]; 32 µg/mL (≈ 91.6 µM) in [8].

Turning to `Cc1nn(CC(=O)N/N=C2\SCC(=O)N2c2ccccc2)c(=O)n1CCCn1ccnc1`, the MIC entry in assay [1], in assay [3], in assay [4], in assay [5], in [6] and in assay [7] was “inactive” each time. In addition, the MIC result in assay [8], in assay [9] and in assay [10] was “inactive” in each case. The MIC in assay [2] was found to be 62.5 µg/mL (≈ 138 µM).

Regarding `Cc1nn(CN2CCN(c3ccccc3)CC2)c(=O)n1CCCn1ccnc1`, the MIC result in [1], in assay [2], in assay [5], in assay [6] and in assay [9] was “inactive” each time. Also, the MIC in assay [3] came to 1.2 µg/mL (≈ 3.15 µM); in assay [4], 62.5 µg/mL (≈ 164 µM); in [7], 31.3 µg/mL (≈ 82 µM); in [8] it was 0.7 µg/mL (≈ 1.83 µM); in [10], 125 µg/mL (≈ 328 µM).

As for `Cc1nn(CC(=O)N/N=C/c2ccccc2O)c(=O)n1/N=C/c1ccncc1`, the MIC in [1] worked out at 250 µg/mL (≈ 659 µM). In addition, the MIC result in [2], in [3], in assay [4], in assay [5], in assay [6] and in assay [7] was “inactive” in each case. For the same molecule, the MIC entry in assay [8], in assay [9] and in assay [10] was “inactive” throughout.

For the molecule `CCOC(=O)Cn1nc(C)n(CCCn2ccnc2)c1=O`, the MIC in assay [1] turned out to be 250 µg/mL (≈ 852 µM). The MIC result in assay [2], in assay [3], in assay [4], in assay [5], in [6] and in assay [7] was “inactive” throughout. In addition, the MIC result in [9] and in assay [10] was “inactive” each time.

For the molecule `Cc1nn(CN2CCOCC2)c(=O)n1CCCn1ccnc1`, the MIC in assay [1] is 31.2 µg/mL (≈ 102 µM); in assay [2] it was 15.6 µg/mL (≈ 50.9 µM); in assay [3] it was 0.24 µg/mL (≈ 0.783 µM); in assay [4], 0.48 µg/mL (≈ 1.57 µM); in assay [5], 0.97 µg/mL (≈ 3.17 µM); in assay [6], 0.24 µg/mL (≈ 0.783 µM). For the same molecule, the MIC stood at 0.48 µg/mL (≈ 1.57 µM) in [7], 0.48 µg/mL (≈ 1.57 µM) in assay [8], 0.97 µg/mL (≈ 3.17 µM) in assay [9] and 7.81 µg/mL (≈ 25.5 µM) in assay [10].

As for `Cc1nn(CNC2C(=O)N3C2SC(C)(C)C3C(=O)O)c(=O)n1CCCn1ccnc1` (stereo not drawn), the MIC result in assay [1], in assay [5], in assay [6], in assay [9] and in [10] was “inactive” throughout. For the same molecule, the MIC in [2] amounted to 31.3 µg/mL (≈ 71.9 µM); in assay [3] it was 125 µg/mL (≈ 287 µM); in assay [4], 62.5 µg/mL (≈ 144 µM); in [7], 125 µg/mL (≈ 287 µM); in [8], 125 µg/mL (≈ 287 µM).

On to `Cc1nn(CC(=O)N/N=c2\sc(-c3ccc(Cl)cc3)cn2-c2ccccc2)c(=O)n1CCCn1ccnc1`, for which the MIC in assay [1] was 250 µg/mL (≈ 455 µM); in [2], 39.9 µg/mL (≈ 72.7 µM); in assay [10] it was 1000 µg/mL (≈ 1820 µM). Besides, the MIC result in assay [4], in assay [5], in assay [6], in assay [7], in assay [8] and in assay [9] was “inactive” throughout.

In the case of `Cc1nn(-c2ccc(N)cc2F)c(=O)n1CCCn1ccnc1`, the MIC in assay [1] is 250 µg/mL (≈ 790 µM); in assay [2], 31.3 µg/mL (≈ 98.9 µM); in [10], 62.5 µg/mL (≈ 198 µM). For the same molecule, the MIC result in assay [3], in assay [4], in assay [5], in [6], in assay [7] and in assay [8] was “inactive” each time. Moreover, the MIC entry in assay [9] was “inactive”.

`Cc1nn(-c2ccc([N+](=O)[O-])cc2F)c(=O)n1CCCn1ccnc1`: the MIC in [1] and in [10] was 500 µg/mL (≈ 1440 µM) throughout. The MIC entry in assay [2], in assay [3], in [4], in assay [5], in assay [6] and in assay [7] was “inactive” throughout. The MIC result in [8] and in assay [9] was “inactive” in each case.

For `Cc1nn(-c2ccc(/N=C/c3c(Cl)cccc3Cl)cc2F)c(=O)n1CCCn1ccnc1`, the MIC was 250 µg/mL (≈ 528 µM) in assay [1] and 3.9 µg/mL (≈ 8.24 µM) in [2]. The MIC result in assay [3], in [4], in [5], in assay [6], in assay [7] and in [8] was “inactive” each time. For the same molecule, the MIC result in assay [10] was “inactive”.

As for `Cc1n[nH]c(=O)n1CCCn1ccnc1`, the MIC stood at 500 µg/mL (≈ 2410 µM) in assay [1], 125 µg/mL (≈ 603 µM) in assay [2] and 1000 µg/mL (≈ 4830 µM) in [10]. In addition, the MIC result in assay [4], in assay [5], in [6], in assay [7], in [8] and in [9] was “inactive” each time.

Turning to `Cc1nn(-c2ccc(NC(=S)NCc3ccccc3)cc2F)c(=O)n1CCCn1ccnc1`, the MIC in [1] was 500 µg/mL (≈ 1070 µM); in assay [2] it was 250 µg/mL (≈ 537 µM); in assay [10], 500 µg/mL (≈ 1070 µM). Besides, the MIC entry in assay [4], in assay [5], in assay [6], in [7], in assay [8] and in [9] was “inactive” each time.

For `OC(Cn1cncn1)(Cn1cncn1)c1ccc(F)cc1F` [FLUCONAZOLE], the MIC in [1] and in assay [10] was less than 8 µg/mL in each case.

`Cc1nn(CNCCN2CCNCC2)c(=O)n1CCCn1ccnc1`: the MIC was 125 µg/mL (≈ 359 µM) in assay [1]; 500 µg/mL (≈ 1430 µM) in assay [2]; 125 µg/mL (≈ 359 µM) in assay [4]; 62.5 µg/mL (≈ 179 µM) in [8]; 1.2 µg/mL (≈ 3.44 µM) in assay [9]. Further, the MIC result in [3], in [5], in assay [6] and in [7] was “inactive” each time.

(Values after ChEMBL document CHEMBL3046479, “Preparation and antimicrobial activity evaluation of some new bi- and triheterocyclic azoles” (2013).)
